Assay results as given in ChEMBL document CHEMBL1140223, “Novel multifunctional acyloxyalkyl ester prodrugs of 5-aminolevulinic acid display improved anticancer activity independent and dependent on photoactivation” (J Med Chem, 2008).
Calls of active or inactive are those of the source. The calls are words filed in the database; no cut-off is given here.

Experiments:
U-251 [1] = assay: Cytotoxicity against human U251 cells after 72 hrs by Hoechst test; assay type: functional, cell-based; conditions: U-251, 72 h
HL-60 = assay: Cytotoxicity against human HL60 cells after 72 hrs by MTT assay; assay type: functional, cell-based; conditions: HL-60, 72 h
U-251 [2] = assay: Increase in heme level in human U251 cells at 100 uM after 48 hrs by Western blot relative to control; assay type: functional
U-251 [3] = assay: Inhibition of 26S proteasome activity in human U251 cells at 100 uM after 48 hrs in presence of N-acetyl-L-cysteine relative to control; assay type: cell-based; conditions: values are per cent of control
U-251 [4] = assay: Increase in ROS production in human U251 cells at 100 uM after 4 hrs by FACS; assay type: functional, cell-based
U-251 [5] = assay: Inhibition of 26S proteasome activity in human U251 cells at 0.5 mM after 24 hrs; assay type: cell-based
U-251 [6] = assay: Increase in ROS production in human U251 cells at 100 uM after 4 hrs by FACS in presence of N-acetyl-L-cysteine; assay type: functional, cell-based
U-251 [7] = assay: Inhibition of 26S proteasome activity in human U251 cells at 100 uM after 48 hrs relative to control; assay type: cell-based; conditions: values are per cent of control
U-251 [8] = assay: Increase in ROS production in human U251 cells at 50 uM after 4 hrs by FACS flow cytometry; assay type: functional
U-251 [9] = assay: Increase in CDKp21 expression levels in human U251 cells at 100 uM after 4 hrs by Western blot; assay type: functional, cell-based
U-251 [10] = assay: Antiproliferative activity against human U251 cells assessed as PpIX release pretreated 72 hrs before 360-410 nm light photosensitization measured after 48 hrs by Hoechst test; assay type: functional, cell-based
U-251 [11] = assay: Increase in heme level in human U251 cells assessed as porphobilinogen deaminase level at 100 uM after 2 hrs by Western blot relative to control; assay type: functional
U-251 [12] = assay: Induction of apoptosis in human U251 cells assessed as late apoptotic cells at 100 uM after 48 hrs using annexin-V FITC and PI staining by flow cytometry in presence of Z-Asp-2,6-dichlorobenzoyloxymethylketone; assay type: functional
U-251 [13] = assay: Induction of apoptosis in human U251 cells assessed as early apoptotic cells at 100 uM after 48 hrs using annexin-V FITC and PI staining by flow cytometry in presence of Z-Asp-2,6-dichlorobenzoyloxymethylketone; assay type: functional
U-251 [14] = assay: Cytotoxicity against human U251 cells assessed as ROS production by Hoechst test in presence of N-acetyl-L-cysteine; assay type: functional, cell-based
U-251 [15] = assay: Antiproliferative activity against human U251 cells assessed as PpIX release after 72 hrs by Hoechst test; assay type: functional, cell-based; conditions: U-251, 72 h
U-251 [16] = assay: Induction of apoptosis in human U251 cells assessed as viable cells at 100 uM after 48 hrs using annexin-V FITC and PI staining by flow cytometry in presence of Ac-LEHD-CHO; assay type: functional; conditions: U-251, 48 h, read-out: Activity
U-251 [17] = assay: Induction of necrosis in human U251 cells assessed as necrotic cells at 100 uM after 48 hrs using annexin-V FITC and PI staining by flow cytometry in presence of Z-Asp-2,6-dichlorobenzoyloxymethylketone; assay type: functional
U-251 [18] = assay: Induction of necrosis in human U251 cells assessed as necrotic cells at 100 uM after 48 hrs using annexin-V FITC and PI staining by flow cytometry in presence of Ac-LEHD-CHO; assay type: functional
U-251 [19] = assay: Induction of histone H4 hyperacetylation in human U251 cells at 100 uM after 4 hrs by Western blot relative to control; assay type: functional
U-251 [20] = assay: Increase in ROS production in human U251 cells at 50 uM after 4 hrs by FACS flow cytometry in presence of N-acetyl-L-cysteine; assay type: functional, cell-based
U-251 [21] = assay: Increase in pH2AX expression levels in human U251 cells at 100 uM after 2 hrs by Western blot; assay type: functional, cell-based
U-251 [22] = assay: Induction of apoptosis in human U251 cells assessed as late apoptotic cells at 100 uM after 48 hrs using annexin-V FITC and PI staining by flow cytometry; assay type: functional
U-251 [23] = assay: Induction of histone H4 hyperacetylation in human U251 cells at 100 uM after 24 hrs by Western blot relative to control; assay type: functional
U-251 [24] = assay: Induction of apoptosis in human U251 cells assessed as mitochondrial membrane potential dissipation at 100 uM after 24 hrs using JC1 dye by FACS relative to control; assay type: functional
U-251 [25] = assay: Inhibition of 26S proteasome activity in human U251 cells at 100 uM after 24 hrs relative to control; assay type: cell-based
U-251 [26] = assay: Increase in pERK expression levels in human U251 cells at 100 uM after 2 hrs by Western blot relative to control; assay type: functional
U-251 [27] = assay: Increase in protoporphyrin 9 levels in human U251 cells at 200 uM after 24 hrs relative to control; assay type: functional
U-251 [28] = assay: Induction of necrosis in human U251 cells assessed as necrotic cells at 100 uM after 48 hrs using annexin-V FITC and PI staining by flow cytometry; assay type: functional
U-251 [29] = assay: Increase in p-c-Jun expression levels in human U251 cells at 100 uM after 2 hrs by Western blot relative to control; assay type: functional
U-251 [30] = assay: Induction of apoptosis in human U251 cells assessed as early apoptotic cells at 100 uM after 48 hrs using annexin-V FITC and PI staining by flow cytometry; assay type: functional
U-251 [31] = assay: Induction of apoptosis in human U251 cells assessed as viable cells at 100 uM after 48 hrs using annexin-V FITC and PI staining by flow cytometry; assay type: functional; conditions: U-251, 48 h, read-out: Activity
[32] = Cytotoxicity against human MCF7/DX cells after 72 hrs by Hoechst test; assay type: functional, cell-based
U-251 [33] = assay: Reduction in c-myc expression levels in human U251 cells at 100 uM after 4 hrs by Western blot; assay type: functional, cell-based
U-251 [34] = assay: Increase in heme level in human U251 cells assessed as porphobilinogen deaminase level at 100 uM after 2 hrs by Western blot in presence of cycloheximide; assay type: functional, cell-based
U-251 [35] = assay: Induction of apoptosis in human U251 cells assessed as increase in cleaved caspase 3 level after 24 hrs by Western blot; assay type: functional, cell-based
U-251 [36] = assay: Induction of apoptosis in human U251 cells assessed as increase in cleaved caspase 9 level after 24 hrs by Western blot; assay type: functional, cell-based
U-251 [37] = assay: Induction of apoptosis in human U251 cells assessed as early apoptotic cells at 100 uM after 48 hrs using annexin-V FITC and PI staining by flow cytometry in presence of Ac-LEHD-CHO; assay type: functional
U-251 [38] = assay: Induction of apoptosis in human U251 cells assessed as late apoptotic cells at 100 uM after 48 hrs using annexin-V FITC and PI staining by flow cytometry in presence of Ac-LEHD-CHO; assay type: functional
U-251 [39] = assay: Increase in protoporphyrin 9 levels in human U251 cells at 100 uM after 24 hrs relative to control; assay type: functional
MCF7 = assay: Cytotoxicity against human MCF7 cells after 72 hrs by Hoechst test; assay type: functional, cell-based; conditions: MCF7, 72 h
U-251 [40] = assay: Induction of apoptosis in human U251 cells assessed as increase in full length caspase 8 level after 24 hrs by Western blot; assay type: functional, cell-based
U-251 [41] = assay: Induction of apoptosis in human U251 cells assessed as viable cells at 100 uM after 48 hrs using annexin-V FITC and PI staining by flow cytometry in presence of Z-Asp-2,6-dichlorobenzoyloxymethylketone; assay type: functional; conditions: U-251, 48 h, read-out: Activity
U-251 [42] = assay: Inhibition of 26S proteasome activity in human U251 cells at 1 mM after 48 hrs; assay type: cell-based
U-251 [43] = assay: Increase in CDKp21 expression levels in human U251 cells at 100 uM after 24 hrs by Western blot; assay type: functional, cell-based

Structure (SMILES)	IC50 (U-251 [1])	IC50 (HL-60)	Activity (U-251 [2])	residual activity (U-251 [3])	residual activity (U-251 [7])	fold change (FC) (U-251 [11])	Activity (U-251 [12])	Activity (U-251 [13])	viability at 100 µM (U-251 [16])	Activity (U-251 [17])	Activity (U-251 [18])	Activity (U-251 [22])	Activity (U-251 [28])	Activity (U-251 [30])	viability at 100 µM (U-251 [31])	IC50 [32]	Activity (U-251 [37])	Activity (U-251 [38])	IC50 (MCF7)	viability at 100 µM (U-251 [41])	further results
CCCC(CCC)C(=O)OC(C)OC(=O)CCC(=O)CN (centres undefined)	1040 µM	780 µM	–	–	–	–	–	–	–	–	–	–	–	–	–	–	–	–	–	–	–
CCCC(=O)O [BUTYRIC ACID]	932 µM	–	126%	80%	74%	–	–	–	–	–	–	–	–	–	–	–	–	–	–	–	Activity (U-251 [4]): Active; Activity (U-251 [5]): Active; Activity (U-251 [6]): Active
CCCC(=O)OCOC(=O)CCC(=O)CN.Cl	89 µM	57 µM	260%	64%	56%	8	5%	4%	81%	11%	15%	17%	19%	17%	47%	84 µM	2%	2%	74 µM	80%	Activity (U-251 [8]): 68%; Activity (U-251 [9]): Active; IC50 (U-251 [10]): 59 µM; Activity (U-251 [14]): Active; IC50 (U-251 [15]): 99 µM; fold change (FC) (U-251 [19]): 1.4; Activity (U-251 [20]): Active; Activity (U-251 [21]): Active; fold change (FC) (U-251 [23]): 2; fold change (FC) (U-251 [24]): 2.4; inhibition (U-251 [25]): 40%; fold change (FC) (U-251 [26]): 5.4; fold change (FC) (U-251 [27]): 12.4; fold change (FC) (U-251 [29]): 9.5; Activity (U-251 [33]): Active; Activity (U-251 [34]): inactive; Activity (U-251 [35]): Active; Activity (U-251 [36]): Active; fold change (FC) (U-251 [39]): 6.6; Activity (U-251 [40]): Active
NCC(=O)CCC(=O)O [AMINOLEVULINIC ACID]	2660 µM	1570 µM	130%	102%	100%	2	5%	2%	78%	17%	17%	14%	7%	6%	76%	3480 µM	2%	3%	1740 µM	76%	IC50 (U-251 [10]): 2720 µM; Activity (U-251 [4]): Active; IC50 (U-251 [15]): 2720 µM; Activity (U-251 [6]): inactive; fold change (FC) (U-251 [27]): 7.2; Activity (U-251 [34]): Active; Activity (U-251 [42]): Active; fold change (FC) (U-251 [39]): 3; Activity (U-251 [40]): Active
CCCC(=O)OC(C)OC(=O)CCC(=O)CN.Cl (centres undefined)	728 µM	274 µM	–	146%	117%	2	3%	2%	86%	7%	8%	6%	10%	4%	80%	807 µM	3%	3%	714 µM	88%	Activity (U-251 [8]): Active; IC50 (U-251 [10]): 509 µM; Activity (U-251 [14]): Active; IC50 (U-251 [15]): 767 µM; fold change (FC) (U-251 [19]): 1.4; Activity (U-251 [43]): Active; fold change (FC) (U-251 [27]): 7.8; fold change (FC) (U-251 [39]): 5
CC(OC(=O)CCC(=O)CN)OC(=O)C(C)(C)C (centres undefined)	2040 µM	1390 µM	–	–	–	–	–	–	–	–	–	–	–	–	–	–	–	–	–	–	–
CCCC(CCC)C(=O)OCOC(=O)CCC(=O)CN	64 µM	–	–	–	–	–	–	–	–	–	–	–	–	–	–	–	–	–	–	–	–
CC(C)(C)C(=O)OCOC(=O)CCC(=O)CN.Cl	93 µM	44 µM	–	101%	54%	2	5%	2%	77%	11%	17%	9%	9%	15%	67%	61 µM	2%	4%	64 µM	82%	Activity (U-251 [14]): inactive; Activity (U-251 [19]): inactive; Activity (U-251 [20]): inactive; fold change (FC) (U-251 [24]): 3; Activity (U-251 [34]): Active; Activity (U-251 [35]): Active; Activity (U-251 [36]): Active; Activity (U-251 [40]): Active
CCCC(=O)OCOP(=O)(OCC)OCC [(DIETHOXYPHOSPHORYLOXY)METHYL BUTYRATE]	89 µM	–	–	–	–	–	–	–	–	–	–	–	–	–	–	–	–	–	–	–	Activity (U-251 [20]): Active; Activity (U-251 [25]): Active; Activity (U-251 [27]): inactive
